Assay results published in the OPERA property sets (Mansouri et al. 2018).

Conditions: for log10 biotransformation half-life (days) / log10 BCF: fish

| Structure (SMILES) | melting point [°C] | boiling point [°C] | also measured |
| --- | --- | --- | --- |
| CCCCCCC(C)OC(=O)COc1nc(F)c(Cl)c(N)c1Cl (stereo not drawn) | 59 | – | log10 vapour pressure (mmHg): -8; log10 biotransformation half-life (days): -0.61 |
| NC(=O)NCCCC(N)C(=O)O (stereo in doubt) | 236 | – | – |
| CSc1ccc2c(c1)N(CCC1CCCCN1C)c1ccccc1S2 (stereo not drawn) | 73 | – | – |
| CCCCCCCCCCCCCC(CCCCCCCCCCCC)CCCCCCCCCCCC | 13.7 | – | – |
| CNC(=C[N+](=O)[O-])NCCSCc1ccc(CN(C)C)o1 | 69.5 | – | – |
| CN(C)C(CSC(N)=O)CSC(N)=O.Cl | 180 | – | – |
| CC(F)(F)Cl | -131 | -9.7 | log10 Henry constant (atm·m³/mol): -1.23; log10 vapour pressure (mmHg): 3.41 |
| CCCCCCc1ccc(-c2ccc(C#N)cc2)cc1 | – | – | ready biodegradability: not readily biodegradable; log10 BCF: 3.52; log10 biotransformation half-life (days): 0.85 |
| CCCCC(C)(C)CO | – | 172 | – |
| Clc1cc2oc3c(Cl)c(Cl)c(Cl)c(Cl)c3c2c(Cl)c1Cl | – | – | log10 Koa: 11.4 |
| CC1(O)CCCC1 | 36 | 136 | – |
| COC1=C[C@H](C)[C@H]2C[C@H]3OC(O)C[C@H]4C(C)=C(OC)C(=O)C([C@@]34C)[C@@]2(C)C1=O (stereo partly drawn) | 227 | – | – |
| BrC(c1ccccc1)c1ccccc1 | 45 | – | – |
| ClCC(Br)CBr (stereo not drawn) | 6 | 196 | log10 Koc (L/kg): 1.85; log10 vapour pressure (mmHg): -0.237; ready biodegradability: not readily biodegradable; log10 BCF: 1.06; log10 biotransformation half-life (days): -1.14 |
| O=C(Cc1ccccc1)OC(=O)Cc1ccccc1 | 73.3 | – | – |
| O=C1CCCCCCCCC1O (stereo not drawn) | 42 | – | – |
| O=C(O)CCCCC[N+](=O)[O-] | – | – | ready biodegradability: readily biodegradable |
| CCC(=O)C(C)C | – | 114 | log10 vapour pressure (mmHg): 1.26 |
| Clc1ccccc1C(c1ccccc1)(c1ccccc1)n1ccnc1 | 148 | – | – |
| CC(O)C(C)(C)CO (stereo not drawn) | – | 208 | – |
| CCCC(CCC)C(N)=O | 125 | – | – |
| CC1CCCC1 | -142 | 71.8 | log10 biodegradation half-life (days): 0.602; log10 vapour pressure (mmHg): 2.14 |
| CC[C@H]1CC[C@H](C)C1 | -108 | 121 | – |
| CC(C)CCN | – | 96 | – |

| Structure (SMILES) | melting point [°C] | boiling point [°C] | also measured |
| --- | --- | --- | --- |
| C[C@H](NC(=O)COC(=O)c1ccccc1)C(N)=O | 202 | – | – |
| Cc1ccc2sc(C)nc2c1 | 38 | – | – |
| COc1cc([C@@H]2c3cc4c(cc3C(O[C@@H]3O[C@@H]5CO[C@@H](C)O[C@H]5[C@H](O)[C@H]3O)C3COC(=O)[C@@H]32)OCO4)cc(OC)c1O (stereo partly drawn) | 244 | – | – |
| Brc1ccc(Oc2ccccc2)cc1 | 18.7 | 310 | log10 Koc (L/kg): 4.23; log10 vapour pressure (mmHg): -2.82 |
| CCC(O)CCC(F)(F)F (stereo not drawn) | – | 141 | – |
| c1ccc(CN2CCOCC2)cc1 | 194 | 260 | – |
| CCCCC(C)(C)CC | – | 137 | – |
| C[C@H]1O[C@@H](O[C@H]2[C@@H](O)C[C@H](O[C@H]3[C@@H](O)C[C@H](O[C@H]4CC[C@@]5(C)[C@H](CC[C@@H]6[C@@H]5CC[C@]5(C)[C@@H](C7=CC(=O)OC7)CC[C@]65O)C4)O[C@@H]3C)O[C@@H]2C)C[C@H](O)[C@@H]1O | 256 | – | – |
| C=CCC(C(=O)O)C(=O)O | 105 | – | – |
| CC(=O)[C@H]1CC[C@H]2[C@@H]3C[C@H](C)C4=CC(=O)CC[C@]4(C)[C@H]3[C@@H](O)C[C@]12C | 156 | – | – |
| O=C(O)CCI | 81.5 | – | – |
| Clc1ccc(-c2ccccc2Cl)cc1 | – | – | log10 Henry constant (atm·m³/mol): -3.64; log10 Koa: 7.4; log10 Koc (L/kg): 4.34; log10 vapour pressure (mmHg): -2.68 |
| Oc1ccc2ccccc2c1/N=N/c1ccccc1 | 134 | – | log10 Koc (L/kg): 3.58 |
| COc1cc(O)c2c(c1)OC(c1ccc(O)cc1)CC2=O (stereo not drawn) | 152 | – | – |
| FC(F)C(F)Cl (stereo not drawn) | – | 17 | – |
| NC(N)=N/C(N)=N/c1ccccc1 | 143 | – | – |
| COCC(O)CO (stereo not drawn) | – | 220 | – |
| O=[N+]([O-])c1ccc(Cc2ccncc2)cc1 | 71 | – | – |
| C=CCCCCCCCCCCCCCC | 4.1 | 285 | log10 vapour pressure (mmHg): -2.58; ready biodegradability: readily biodegradable; log10 biotransformation half-life (days): 1.67 |
| CC(=O)Nc1ccc(C#N)cc1 | 207 | – | – |
| O[C@H]1[C@H]2c3cc4c(cc3CN3CCC(=C[C@@H]1O)[C@H]23)OCO4 | 280 | – | – |
| C=CCOc1ccc(CC(=O)O)cc1Cl | 92.5 | – | – |
| COc1ccccc1O | 32 | 205 | log10 Henry constant (atm·m³/mol): -5.92; log10 Koc (L/kg): 1.56; log10 vapour pressure (mmHg): -0.987; ready biodegradability: readily biodegradable |
